Holding throughout (assay): NCI tumour cell line growth inhibition, 48 h
Test [1] deals with SN12C renal.
Test [2] relates to MOLT-4 leukemia.
Test [3] has as its system M19-MEL melanoma.
The subject of test [4] is DMS 273 small cell lung.
Test [5] has as its system LXFL 529 NSCLC.
Test [6] deals with DLD-1 colon.
Test [7] relates to MDA-MB-435.
Test [8] relates to T-47D breast.
In test [9] the test system is BT-549 breast.
For test [10], the system named is MCF7 breast.

Molecules are shown by their SMILES.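 Test compounds were applied to cells in 96-well plates for 48 hours at 5 doses. GI50 marks 50% less growth. TGI is the concentration that stops growth completely.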

For `COC1=C(C(=O)OC(C)(C)C)C23CCCCC2(C(C(=O)OC(C)(C)C)=C(OC)C3C(=O)OC(C)(C)C)C1C(=O)OC(C)(C)C` (stereo not drawn), the TGI in [1] is over 100 µM; in test [2] it was 44.4 µM; in [3] it was over 100 µM; in test [4], over 100 µM; in [5] it was over 100 µM; in test [6] it was over 100 µM.
With `COc1ccc(NC(=O)CC(=O)n2nc(-c3ccccc3)c(N=Nc3ccc(C)cc3)c2-c2ccccc2)cc1`, the TGI in test [1] is 81.9 µM; in [2], over 100 µM; in test [7], over 100 µM; in test [3] it was over 100 µM; in test [8] it was over 75 µM; in [4] it was over 100 µM. In addition, the TGI in test [9] is over 58 µM; in [5] it was over 100 µM; in test [6], over 100 µM; in test [10], over 85.2 µM.
As for `O=c1c2ccccc2oc2nccnc12`, the TGI in [1], in [2], in test [3], in [4], in test [5] and in [6] was over 100 µM throughout.
Take `CC(=O)OCC1OC(n2c(-c3ccc(N)cc3)cc(-c3ccco3)c(C#N)c2=O)C(OC(C)=O)C(OC(C)=O)C1OC(C)=O` (stereo not drawn): the TGI in test [1], in [2], in [3], in test [4], in test [5] and in [6] was over 50 µM each time.
As to `C[N+](C)(C)CC(=O)NC(=O)N/N=C\C(CC#N)CN(Cc1ccccc1)Cc1ccccc1` (stereo not drawn), the TGI in test [1], in test [2], in [3], in test [4], in test [5] and in test [6] was over 100 µM in each case.
For `c1cc(C2O[C@H]3CCCN3[C@@H]2c2ccncc2)ccn1` (stereo partly drawn), the TGI in [1], in test [2], in [3], in test [4], in test [5] and in test [6] was over 100 µM in each case.
Take `COc1cc(OC)c(Oc2cccc(OC)c2OC)c(OC)c1`: the TGI in [1], in [2], in test [3], in test [4], in [5] and in test [6] was over 100 µM in each case.
Regarding `O=C(O)C(=O)/C=C\c1ccc(Cl)cc1`, the TGI in test [1], in test [2], in [3], in test [4], in [5] and in test [6] was over 100 µM each time.
`NNC(=S)N/N=C(\c1nc2ccc(Cl)cc2[nH]c1=O)C(O)c1ccc(Cl)cc1Cl` (stereo not drawn): the TGI in [1], in test [2], in test [3], in test [4], in test [5] and in test [6] was over 100 µM each time.
With `CCOC(=O)C(=C=Cc1cccs1)C(=O)c1ccccc1`, the TGI stood at 29.3 µM in test [1]; 48.5 µM in test [2]; 32.1 µM in [3]; 31.3 µM in test [4]; 28.4 µM in test [5]; 27.8 µM in [6].
For the compound `CC(C)CCC[C@@H](C)C1CCC2[C@@H]3CC=C4C[C@@H](OC(=O)CCC(=O)NCC[N+](C)(C)CCCS(=O)(=O)[O-])CC[C@]4(C)C3CC[C@@]21C` (stereo partly drawn), the TGI in [1] worked out at 38.2 µM; in [2], 39.7 µM; in test [3], 33.4 µM; in test [4], 28.5 µM; in test [5] it was 71.6 µM; in test [6] it was 44.9 µM.
Consider `COc1ccc(-c2cc(-c3ccco3)c(C#N)c(=O)n2C2OC(OC(=O)c3ccccc3)C(OC(=O)c3ccccc3)C2OC(=O)c2ccccc2)cc1` (stereo not drawn), for which the TGI in [1], in test [2], in [3], in [4], in test [5] and in [6] was over 100 µM in each case.
In the case of `Nc1ccc(Cl)cc1.Nc1ccc(Cl)cc1.Nc1ccc(Cl)cc1.O=C([O-])C(=O)[O-].O=C([O-])C(=O)[O-].[H+].[Ru+5]`, the GI50 in test [1] is over 24.5 µM; in test [2], 1.2 µM; in test [3], 0.0537 µM; in [4], 0.087 µM; in test [5] it was under 0.0272 µM; in test [6], over 43.5 µM. Also, the TGI in test [1] is over 100 µM; in test [2], over 100 µM; in [3], 2.15 µM; in [4] it was over 100 µM; in test [5], over 100 µM; in test [6] it was over 100 µM.
